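Protocol summary: plate cells (96-well), add compound at 5 concentrations, incubate 48 h, interpolate endpoints linearly. Abbreviation: GI50, concentration required for 50% inhibition of growth. TGI: total growth inhibition.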

Some test systems named below: TK-10 renal; SN12C renal; UO-31 renal; UACC-257 melanoma; SK-MEL-2 melanoma; SF-539 CNS; HOP-92 NSCLC; DU-145 prostate; BT-549 breast; NCI/ADR-RES ovarian.
Assay in all cases: NCI anticancer screen, dose series, 48 h

`C#Cc1ccccc1N1C(=O)C=CC1=O`: the TGI with TK-10 renal, in the assay on SN12C renal, in the assay on UO-31 renal, in the assay with UACC-257 melanoma and in the assay on SK-MEL-2 melanoma was more than 100 µM each time.

Take `CCOc1cc[n+](C(=C=[N-])C#N)cc1`: the TGI in the assay with SF-539 CNS, in the assay on TK-10 renal, in the assay on SN12C renal, in the assay with UO-31 renal, in the assay on UACC-257 melanoma and in the assay on HOP-92 NSCLC was more than 100 µM throughout.

Consider `COc1ccc2c(c1)NC(=O)CN2c1nc(C)nc2ccccc12`, for which the GI50 with SF-539 CNS is 0.000298 µM; in the assay with SN12C renal it was 0.00101 µM; in the assay on HOP-92 NSCLC, 49.5 µM; with BT-549 breast, 0.0021 µM. Also, the TGI in the assay on SF-539 CNS is 0.00144 µM; in the assay on DU-145 prostate, more than 100 µM; with TK-10 renal it was more than 100 µM; in the assay with SN12C renal, more than 100 µM; in the assay with UO-31 renal it was more than 100 µM; in the assay with HOP-92 NSCLC it was more than 100 µM. Also, the TGI in the assay on SK-MEL-2 melanoma was more than 100 µM.

On to `O=S1(=O)C=C(c2ccccc2)C(c2ccccc2)=C1`, for which the GI50 with SF-539 CNS is 2.14 µM; with DU-145 prostate, 1.64 µM; in the assay on SN12C renal, 1.79 µM; in the assay with UO-31 renal, 1.15 µM; in the assay on UACC-257 melanoma it was 1.52 µM; with HOP-92 NSCLC it was 1.65 µM. Moreover, in the assay on NCI/ADR-RES ovarian, the GI50 was 2.73 µM. The TGI in the assay on SF-539 CNS is 5.94 µM; in the assay with DU-145 prostate, 3 µM; with SN12C renal, 3.92 µM; with UO-31 renal, 2.6 µM; in the assay on UACC-257 melanoma it was 2.96 µM; with HOP-92 NSCLC, 3.19 µM. The compound further displayed a TGI with NCI/ADR-RES ovarian of 9.31 µM.

`CC(=O)N1CCN(C=S)CC1`: the TGI in the assay on SF-539 CNS, with TK-10 renal, in the assay with SN12C renal, in the assay on UO-31 renal, in the assay on UACC-257 melanoma and in the assay with HOP-92 NSCLC was more than 100 µM each time.

With `C/C(=N\NS(=O)(=O)c1ccccc1)c1ccc[n+]([O-])n1`, the TGI with SF-539 CNS, in the assay with SN12C renal, in the assay on UO-31 renal, with UACC-257 melanoma and with HOP-92 NSCLC was more than 100 µM each time.

Regarding `CCCCCCC(=O)CC(=O)C(=O)Nc1ccccc1C`, the TGI in the assay with SF-539 CNS, in the assay with TK-10 renal, in the assay on SN12C renal, in the assay on UO-31 renal, in the assay with UACC-257 melanoma and in the assay on HOP-92 NSCLC was more than 100 µM in each case. This compound also registered a TGI in the assay with SK-MEL-2 melanoma of more than 100 µM.

Turning to `NC(C(=O)O)c1ccc(C(=O)O)cc1` (centres undefined), the TGI in the assay on SF-539 CNS, in the assay with TK-10 renal, with SN12C renal, with UO-31 renal, in the assay on UACC-257 melanoma and in the assay on SK-MEL-2 melanoma was more than 100 µM throughout.

Take `Cc1ccc(SSCCCCS(=O)O)cc1`: the TGI in the assay with SF-539 CNS was determined as 38.1 µM; in the assay with TK-10 renal, 46.8 µM; in the assay on SN12C renal, 40.4 µM; with UO-31 renal, 39.8 µM; in the assay with UACC-257 melanoma it was 53.3 µM; with SK-MEL-2 melanoma, 68.5 µM.

Turning to `N#CCCn1c(CCC(=O)Nc2ccc(Cl)cc2Cl)n[nH]c1=S`, the TGI in the assay on SF-539 CNS, in the assay with TK-10 renal, in the assay on SN12C renal, with UO-31 renal, with UACC-257 melanoma and with HOP-92 NSCLC was more than 100 µM in each case. Further, in the assay on SK-MEL-2 melanoma, the TGI is more than 100 µM.

`COc1ccc([Se]c2ccc(OC)cc2)cc1`: the TGI with SF-539 CNS was more than 100 µM; in the assay with TK-10 renal, more than 100 µM; with SN12C renal, more than 100 µM; with UO-31 renal it was 9.8 µM; in the assay with UACC-257 melanoma, more than 100 µM; with HOP-92 NSCLC, 98.7 µM. This compound also displayed a TGI in the assay on SK-MEL-2 melanoma of more than 100 µM.

As to `Cc1ccccc1NC(=O)CC(=O)n1nc(-c2ccccc2)c(N=Nc2ccc([N+](=O)[O-])cc2)c1-c1ccccc1`, the TGI in the assay on SF-539 CNS is 52 µM; with TK-10 renal, more than 100 µM; in the assay on SN12C renal, 58.4 µM; in the assay on UO-31 renal, 34.8 µM; with UACC-257 melanoma, 56.4 µM; in the assay on HOP-92 NSCLC it was 34 µM. The compound also had a TGI in the assay with SK-MEL-2 melanoma of more than 100 µM.

Consider `NNC(=O)N/N=C1/C(=O)N(c2ccc(Cl)c(Cl)c2)C(=O)C(=O)C1c1nc2ccccc2o1` (centres undefined), for which the TGI with SF-539 CNS, with TK-10 renal, in the assay on SN12C renal, with UO-31 renal, with UACC-257 melanoma and with HOP-92 NSCLC was more than 100 µM in each case. Besides, the TGI in the assay on SK-MEL-2 melanoma is more than 100 µM.

Take `O=S1Cc2ccccc2CSS1` (centres undefined): the TGI with SF-539 CNS stood at 29.8 µM; in the assay on TK-10 renal, 33.2 µM; with SN12C renal, 29.4 µM; with UO-31 renal it was 32.6 µM; in the assay on UACC-257 melanoma, 29.1 µM; in the assay with HOP-92 NSCLC, 31.8 µM.

For the compound `CN(C)c1ccc(/C=c2\sc3nnc(Cc4ccccc4)n3c2=O)cc1`, the GI50 with SF-539 CNS, in the assay on TK-10 renal, with SN12C renal, with UACC-257 melanoma and in the assay with SK-MEL-2 melanoma was more than 100 µM in each case. Moreover, the TGI in the assay on SF-539 CNS, in the assay on TK-10 renal, in the assay with SN12C renal, in the assay with UO-31 renal, in the assay on UACC-257 melanoma and with HOP-92 NSCLC was more than 100 µM throughout. This compound also returned a TGI in the assay with SK-MEL-2 melanoma of more than 100 µM.

In the case of `COC(=O)C(C(=O)C(=O)Nc1ccc(N)cc1[N+](=O)[O-])c1nc2ccc(Cl)cc2[nH]c1=O` (centres undefined), the TGI in the assay on SF-539 CNS, in the assay on TK-10 renal, in the assay on SN12C renal, in the assay on UO-31 renal, in the assay with UACC-257 melanoma and in the assay with HOP-92 NSCLC was more than 100 µM throughout. This compound returned a TGI with SK-MEL-2 melanoma of more than 100 µM.

The values above are taken from PubChem BioAssay (NCI).
